Patent US10167262B2, “Herbicidal substituted 3-arylpyrazoles” (FMC CORPORATION, priority 2014, dated 2019)

Columns and labels:
Format in all cases: in vivo
[1] = test system: barnyardgrass (Echinochloa crus-galli); assay: Test A pre-/postemergence greenhouse herbicide test, visual injury rating 0-100
Outline: (§1)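 Seeds planted in loam-sand blend; preemergence directed soil spray and postemergence spray at 2–10 cm, one- to two-leaf stage, compounds formulated in non-phytotoxic solvent with surfactant. After about 10 days in greenhouse, injury rated visually against untreated controls, 0 (no effect) to 100 (complete control).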

[2] = test system: corn (Zea mays); assay: as above
Outline: as §1

[3] = test system: giant foxtail (Setaria faberii); assay: as above
Outline: as §1

[4] = test system: large (Lg) crabgrass (Digitaria sanguinalis); assay: as above
Outline: as §1

[5] = test system: morningglory (Ipomoea spp.); assay: as above
Outline: as §1

[6] = test system: pigweed (Amaranthus retroflexus); assay: as above
Outline: as §1

[7] = test system: velvetleaf (Abutilon theophrasti); assay: as above
Outline: as §1

[8] = test system: wheat (Triticum aestivum); assay: as above
Outline: as §1

[9] = test system: Italian ryegrass (Lolium multiflorum); assay: Test C pre-/postemergence greenhouse test, plant response rating 0-100; details: Postemergence; for Plant response rating, Ryegrass, Italian: scale 0 to 100
Outline: (§2)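 Formulated in solvent with surfactant, test chemicals were sprayed on seeded loam/sand pots and, concurrently, on young plants 2–18 cm tall. Evaluation: visual, versus controls, day 13–15.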

[10] = test system: galium (catchweed bedstraw, Galium aparine); assay: as above; details: Postemergence; for Plant response rating, Galium: scale 0 to 100
Outline: as §2

[11] = test system: large (Lg) crabgrass (Digitaria sanguinalis); assay: as above; details: Postemergence; for Plant response rating, Crabgrass, Large: scale 0 to 100
Outline: as §2

[12] = test system: ragweed (common ragweed, Ambrosia elatior); assay: as above; details: Postemergence; for Plant response rating, Ragweed: scale 0 to 100
Outline: as §2

[13] = test system: yellow nutsedge (Cyperus esculentus); assay: as above; details: Postemergence; for Plant response rating, Nutsedge, Yellow: scale 0 to 100
Outline: as §2

Fc1ccc(NN=C(c2ccccc2)c2c[nH]nc2-c2cc(Cl)cc(Cl)c2)cc1 [Compound 35]
Plant response rating (0 to 100 scale), Barnyardgrass ([1]; Postemergence, 1000 g ai/ha): 0 | Plant response rating (0 to 100 scale), Barnyardgrass ([1]; Preemergence, 1000 g ai/ha): 0 | Plant response rating (0 to 100 scale), Corn ([2]; Postemergence, 1000 g ai/ha): 0 | Plant response rating (0 to 100 scale), Corn ([2]; Preemergence, 1000 g ai/ha): 0 | Plant response rating (0 to 100 scale), Foxtail, Giant ([3]; Postemergence, 1000 g ai/ha): 0 | Plant response rating (0 to 100 scale), Foxtail, Giant ([3]; Preemergence, 1000 g ai/ha): 0 | Plant response rating (0 to 100 scale), Crabgrass, Large ([4]; Postemergence, 1000 g ai/ha): 0 | Plant response rating (0 to 100 scale), Crabgrass, Large ([4]; Preemergence, 1000 g ai/ha): 0 | Plant response rating (0 to 100 scale), Morningglory ([5]; Postemergence, 1000 g ai/ha): 0 | Plant response rating (0 to 100 scale), Morningglory ([5]; Preemergence, 1000 g ai/ha): 0 | Plant response rating (0 to 100 scale), Pigweed ([6]; Postemergence, 1000 g ai/ha): 90 | Plant response rating (0 to 100 scale), Pigweed ([6]; Preemergence, 1000 g ai/ha): 100 | Plant response rating (0 to 100 scale), Velvetleaf ([7]; Postemergence, 1000 g ai/ha): 90 | Plant response rating (0 to 100 scale), Velvetleaf ([7]; Preemergence, 1000 g ai/ha): 100 | Plant response rating (0 to 100 scale), Wheat ([8]; Postemergence, 1000 g ai/ha): 0 | Plant response rating (0 to 100 scale), Wheat ([8]; Preemergence, 1000 g ai/ha): 0 | Plant response rating (0 to 100), Ryegrass, Italian ([9]; 62 g ai/ha): 0 | Plant response rating (0 to 100), Ryegrass, Italian ([9]; 125 g ai/ha): 0 | Plant response rating, Ryegrass, Italian ([9]; 250 g ai/ha): 0 | Plant response rating, Ryegrass, Italian ([9]; 500 g ai/ha): 0 | Plant response rating (0 to 100), Galium ([10]; 62 g ai/ha): 0 | Plant response rating (0 to 100), Galium ([10]; 125 g ai/ha): 0 | Plant response rating, Galium ([10]; 250 g ai/ha): 0 | Plant response rating, Galium ([10]; 500 g ai/ha): 5 | Plant response rating (0 to 100), Crabgrass, Large ([11]; 62 g ai/ha): 5 | Plant response rating (0 to 100), Crabgrass, Large ([11]; 125 g ai/ha): 5 | Plant response rating, Crabgrass, Large ([11]; 250 g ai/ha): 5 | Plant response rating, Crabgrass, Large ([11]; 500 g ai/ha): 5 | Plant response rating (0 to 100), Ragweed ([12]; 62 g ai/ha): 15 | Plant response rating (0 to 100), Ragweed ([12]; 125 g ai/ha): 40 | Plant response rating, Ragweed ([12]; 250 g ai/ha): 50 | Plant response rating, Ragweed ([12]; 500 g ai/ha): 55 | Plant response rating (0 to 100), Nutsedge, Yellow ([13]; 62 g ai/ha): 0 | Plant response rating (0 to 100), Nutsedge, Yellow ([13]; 125 g ai/ha): 5 | Plant response rating, Nutsedge, Yellow ([13]; 250 g ai/ha): 5 | Plant response rating, Nutsedge, Yellow ([13]; 500 g ai/ha): 5

CCn1cc(C(=NN2CCCC2)c2ccccc2)c(-c2cc(Cl)cc(Cl)c2)n1 [Compound 37]
Plant response rating (0 to 100 scale), Barnyardgrass ([1]; Postemergence, 125 g ai/ha): 0 | Plant response rating (0 to 100 scale), Barnyardgrass ([1]; Postemergence, 500 g ai/ha): 0 | Barnyardgrass plant response rating (0 = no effect, 100 = complete control) ([1]; Preemergence, 125 g ai/ha): 0 | Plant response rating (0 to 100 scale), Barnyardgrass ([1]; Preemergence, 500 g ai/ha): 0 | Plant response rating (0 to 100 scale), Corn ([2]; Postemergence, 125 g ai/ha): 0 | Plant response rating (0 to 100 scale), Corn ([2]; Postemergence, 500 g ai/ha): 0 | Corn plant response rating (0 = no effect, 100 = complete control) ([2]; Preemergence, 125 g ai/ha): 0 | Plant response rating (0 to 100 scale), Corn ([2]; Preemergence, 500 g ai/ha): 0 | Plant response rating (0 to 100 scale), Foxtail, Giant ([3]; Postemergence, 125 g ai/ha): 0 | Plant response rating (0 to 100 scale), Foxtail, Giant ([3]; Postemergence, 500 g ai/ha): 0 | Foxtail, Giant plant response rating (0 = no effect, 100 = complete control) ([3]; Preemergence, 125 g ai/ha): 0 | Plant response rating (0 to 100 scale), Foxtail, Giant ([3]; Preemergence, 500 g ai/ha): 0 | Plant response rating (0 to 100 scale), Crabgrass, Large ([4]; Postemergence, 125 g ai/ha): 0 | Plant response rating (0 to 100 scale), Crabgrass, Large ([4]; Postemergence, 500 g ai/ha): 0 | Crabgrass, Large plant response rating (0 = no effect, 100 = complete control) ([4]; Preemergence, 125 g ai/ha): 0 | Plant response rating (0 to 100 scale), Crabgrass, Large ([4]; Preemergence, 500 g ai/ha): 0 | Plant response rating (0 to 100 scale), Morningglory ([5]; Postemergence, 125 g ai/ha): 0 | Plant response rating (0 to 100 scale), Morningglory ([5]; Postemergence, 500 g ai/ha): 0 | Morningglory plant response rating (0 = no effect, 100 = complete control) ([5]; Preemergence, 125 g ai/ha): 0 | Plant response rating (0 to 100 scale), Morningglory ([5]; Preemergence, 500 g ai/ha): 0 | Plant response rating (0 to 100 scale), Pigweed ([6]; Postemergence, 125 g ai/ha): 80 | Plant response rating (0 to 100 scale), Pigweed ([6]; Postemergence, 500 g ai/ha): 100 | Pigweed plant response rating (0 = no effect, 100 = complete control) ([6]; Preemergence, 125 g ai/ha): 40 | Plant response rating (0 to 100 scale), Pigweed ([6]; Preemergence, 500 g ai/ha): 90 | Plant response rating (0 to 100 scale), Velvetleaf ([7]; Postemergence, 125 g ai/ha): 80 | Plant response rating (0 to 100 scale), Velvetleaf ([7]; Postemergence, 500 g ai/ha): 100 | Velvetleaf plant response rating (0 = no effect, 100 = complete control) ([7]; Preemergence, 125 g ai/ha): 0 | Plant response rating (0 to 100 scale), Velvetleaf ([7]; Preemergence, 500 g ai/ha): 40 | Plant response rating (0 to 100 scale), Wheat ([8]; Postemergence, 125 g ai/ha): 0 | Plant response rating (0 to 100 scale), Wheat ([8]; Postemergence, 500 g ai/ha): 0 | Wheat plant response rating (0 = no effect, 100 = complete control) ([8]; Preemergence, 125 g ai/ha): 0 | Plant response rating (0 to 100 scale), Wheat ([8]; Preemergence, 500 g ai/ha): 0 | Plant response rating (0 to 100), Ryegrass, Italian ([9]; 62 g ai/ha): 0 | Plant response rating (0 to 100), Ryegrass, Italian ([9]; 125 g ai/ha): 0 | Plant response rating, Ryegrass, Italian ([9]; 250 g ai/ha): 0 | Plant response rating (0 to 100), Galium ([10]; 31 g ai/ha): 0 | Plant response rating (0 to 100), Galium ([10]; 62 g ai/ha): 0 | Plant response rating (0 to 100), Galium ([10]; 125 g ai/ha): 0 | Plant response rating, Galium ([10]; 250 g ai/ha): 0 | Plant response rating (0 to 100), Crabgrass, Large ([11]; 31 g ai/ha): 10 | Plant response rating (0 to 100), Crabgrass, Large ([11]; 62 g ai/ha): 10 | Plant response rating (0 to 100), Crabgrass, Large ([11]; 125 g ai/ha): 10 | Plant response rating, Crabgrass, Large ([11]; 250 g ai/ha): 10 | Plant response rating (0 to 100), Ragweed ([12]; 62 g ai/ha): 5 | Plant response rating (0 to 100), Ragweed ([12]; 125 g ai/ha): 5 | Plant response rating, Ragweed ([12]; 250 g ai/ha): 20 | Plant response rating (0 to 100), Nutsedge, Yellow ([13]; 62 g ai/ha): 10 | Plant response rating (0 to 100), Nutsedge, Yellow ([13]; 125 g ai/ha): 10 | Plant response rating, Nutsedge, Yellow ([13]; 250 g ai/ha): 10

CCn1cc(C(=O)c2ccccc2)c(-c2cc(Br)cc(Br)c2)n1 [Compound 38]
Plant response rating (0 to 100 scale), Barnyardgrass ([1]; Postemergence, 1000 g ai/ha): 0 | Plant response rating (0 to 100 scale), Barnyardgrass ([1]; Preemergence, 1000 g ai/ha): 0 | Plant response rating (0 to 100 scale), Corn ([2]; Postemergence, 1000 g ai/ha): 0 | Plant response rating (0 to 100 scale), Corn ([2]; Preemergence, 1000 g ai/ha): 0 | Plant response rating (0 to 100 scale), Foxtail, Giant ([3]; Postemergence, 1000 g ai/ha): 0 | Plant response rating (0 to 100 scale), Foxtail, Giant ([3]; Preemergence, 1000 g ai/ha): 0 | Plant response rating (0 to 100 scale), Crabgrass, Large ([4]; Postemergence, 1000 g ai/ha): 0 | Plant response rating (0 to 100 scale), Crabgrass, Large ([4]; Preemergence, 1000 g ai/ha): 0 | Plant response rating (0 to 100 scale), Morningglory ([5]; Preemergence, 1000 g ai/ha): 0 | Plant response rating (0 to 100 scale), Pigweed ([6]; Postemergence, 1000 g ai/ha): 100 | Plant response rating (0 to 100 scale), Pigweed ([6]; Preemergence, 1000 g ai/ha): 90 | Plant response rating (0 to 100 scale), Velvetleaf ([7]; Postemergence, 1000 g ai/ha): 90 | Plant response rating (0 to 100 scale), Velvetleaf ([7]; Preemergence, 1000 g ai/ha): 80 | Plant response rating (0 to 100 scale), Wheat ([8]; Postemergence, 1000 g ai/ha): 0 | Plant response rating (0 to 100 scale), Wheat ([8]; Preemergence, 1000 g ai/ha): 0 | Plant response rating (0 to 100), Ryegrass, Italian ([9]; 62 g ai/ha): 0 | Plant response rating (0 to 100), Ryegrass, Italian ([9]; 125 g ai/ha): 0 | Plant response rating, Ryegrass, Italian ([9]; 250 g ai/ha): 0 | Plant response rating (0 to 100), Galium ([10]; 31 g ai/ha): 0 | Plant response rating (0 to 100), Galium ([10]; 62 g ai/ha): 0 | Plant response rating (0 to 100), Galium ([10]; 125 g ai/ha): 0 | Plant response rating, Galium ([10]; 250 g ai/ha): 5 | Plant response rating (0 to 100), Crabgrass, Large ([11]; 31 g ai/ha): 0 | Plant response rating (0 to 100), Crabgrass, Large ([11]; 62 g ai/ha): 0 | Plant response rating (0 to 100), Crabgrass, Large ([11]; 125 g ai/ha): 0 | Plant response rating, Crabgrass, Large ([11]; 250 g ai/ha): 0 | Plant response rating (0 to 100), Ragweed ([12]; 62 g ai/ha): 10 | Plant response rating (0 to 100), Ragweed ([12]; 125 g ai/ha): 20 | Plant response rating, Ragweed ([12]; 250 g ai/ha): 35 | Plant response rating (0 to 100), Nutsedge, Yellow ([13]; 62 g ai/ha): 0 | Plant response rating (0 to 100), Nutsedge, Yellow ([13]; 125 g ai/ha): 0 | Plant response rating, Nutsedge, Yellow ([13]; 250 g ai/ha): 0
